Data as given in US20260022100A1, “NAV1.8 INHIBITOR” (Wuhan Humanwell Innovative Drug Research and Development …, priority 2022, published 2026).

Tests used:
[1] = test system: spinal nerve-ligated rats; assay: Spinal nerve ligation neuropathic pain model in rats (Von-Frey mechanical pain threshold); type: in vivo, male SD rat; conditions: SNL rats; for Mechanical pain threshold (Mean ± SD), base value before modeling: baseline before modeling
Source text: A male SD rat weighing 180-220 g was placed on an operating table in a prone position after anesthesia. An incision was made along the spinal column near the hip bone of the animal, and the fascia and muscle were separated. The L5 transverse process was carefully snapped off with a tweezer. The L5 nerve was separated with a glass needle, and the L5 nerve was ligated with 5-0 ligature. The muscle and the skin were sutured and disinfected with iodophor. After 14 days of modeling, the animals were divided into different groups, 10 animals each group. Different compounds were separately orally administered intragastrically. Mechanical pain thresholds of the animals were detected with Von-Frey fiber filaments at different time points after administration. The specific administration dose and detection time are detailed in Table 3 below.
(§1) The mechanical pain threshold detection method: The pelma of the hind limb to be tested of the test animal was continuously stimulated using the Von-Frey fiber filament to bend the fiber filament, and the foot shrinking reaction of the animal was observed. The tested animals were stimulated one by one according to the sequence of the gram number of the fiber filaments from small to large, and each gram number of the fiber filament was continuously used for stimulation for 5 times. If less than 3 positive reactions were present, the procedure described above was repeated using a larger grade of fiber filament, and if 3 or more positive reactions were present for the first time in the test, the fiber filament was the pain threshold for that animal (3 tests per animal for the average). Fiber filament gram number: 0.6, 1.0, 1.4, 2.0, 4.0, 6.0, 8.0, 10.0, and 15.0; the cut value was 15.0 g.

Nav1.8 ion channel = Nav1.8 ion channel (Homo sapiens (Human), UniProt Q9Y5Y9); assay: Inhibitory activity on Nav1.8 ion channel, whole-cell patch-clamp on HEK293/Nav1.8; type: cell-based; conditions: HEK293/Nav1.8, whole-cell patch clamp, holding -80 mV, 1 μM TTX
Method: Reagents were purchased from Sigma (St. Louis, MO) except NaOH and KOH for acid-base titration. The final concentrations of the test compounds were all prepared on the day of the test and then dissolved in an extracellular fluid. The extracellular fluid (mM) was NaCl, 137; KCl, 4; CaCl2), 1.8; MgCl2, 1; HEPES, 10; glucose 10; and pH 7.4 (NaOH titration). All test and control compound solutions contained 1 μM TTX. The intracellular fluid (mM) was: aspartic acid, 140; magnesium chloride, 2; ethylene glycol tetraacetic acid (EGTA), 11; and N-2-hydroxyethylpiperazine-N′-2-ethanesulfonic acid (HEPES), 10. The pH was adjusted to 7.4 with cesium hydroxide.
The test compounds were dissolved in dimethylsulfoxide (DMSO) at a concentration of 9 mM. On the day of the test, the compounds were then dissolved in the extracellular fluid and prepared into the required concentration.
The cells were transferred to a perfusion chamber and perfusion was carried out using the extracellular fluid. The intracellular fluid was thawed on the day of the experiment. The electrodes were produced by pulling with PC-10 (Narishige, Japan). Whole-cell patch-clamp recording was carried out. Noise was filtered at one fifth of the sampling frequency. The intracellular fluid with ¼ length of the electrode tube was added into the electrode, and the electrode was installed on a probe. The required Protocol was set, the interface was adjusted to Membrane test, and Stage was adjusted to Bath. A positive pressure was applied in the electrode. The tip of the electrode was contacted with the cell. The three-way valve of the air extractor was adjusted to a three-way state. A negative pressure was then applied to the electrode, so that the electrode and the cell formed a high-resistance seal. Stage was adjusted to Patch, and leak was controlled within −200 pA. A negative pressure was successively applied, so that cell membranes were broken, and a current path was formed. Perfusion was carried out by opening the suction filtration device and the extracellular fluid valve. The cell current was observed, and administration was started when the cell current was stable (at least 3 sweep current curves were overlapped). Administration was performed from low concentration to high concentration. The administration time of each concentration was not less than 2 min, and when the current was stable, the concentration was changed for administration.
For administration of the test samples, perfusion was carried out using a perfusion system utilizing the self gravity. […] During the period, the CV % of all peak current amplitudes should be less than 10% to exclude up and down fluctuations of the initial current. The average of the peak current amplitudes recorded for the last 10 times during the initial recording served as the current peak of the negative control. After the initial current was stable, the test samples were dosed starting from a low concentration until the 10 recorded peak currents were again stable or the peak currents were “constant” after and before administration after continuous administration for 5 min. We defined the following two cases as “stable” or “constant”: 1) if the absolute average of the peak current for 10 consecutive scans exceeded 200 pA and the CV value was less than 10%, 2) or the average of the peak current for 10 consecutive scans was between 200 pA and 50 pA and the CV value was less than 30%. The next detection of higher concentration was then given.
The average of the peak current of the last 10 scans of each concentration was taken as the peak current for that concentration for data analysis. If the stable state was not reached within 5 min, the peak current average of the last 10 scans at that time was used for data analysis as the peak current for that concentration. At the same time, the cells were discarded and no longer used for detection of higher concentration. At least two cells were tested per concentration of the compounds. […]

[2] = Pharmacokinetic assay in mice; type: in vivo; conditions: male, ICR, mouse, plasma, oral intragastric administration, 10 mg/kg
Method: Pharmacokinetic assay in mice was performed, wherein the mice used were 3 male ICR mice and fasted overnight. The mice were orally intragastrically dosed with the medicament (10 mg/kg). Blood was collected before administration and at 15 min, 30 min and 1 h, 2 h, 4 h, 6 h, 8 h, and 24 h after administration. Blood samples were centrifuged at 8000 rpm for 6 min at 4° C., and plasma was collected and stored at −20° C. The plasma at each time point was taken, and 3-5 times its amount of an acetonitrile solution containing an internal standard was added for mixing. The mixture was vortexed for 1 min and then centrifuged at 13000 rpm at 4° C. for 10 min. The supernatant was taken, and 3 times its amount of water was added for mixing. A proper amount of the resulting mixture was taken for LC-MS/MS analysis. The major pharmacokinetic parameters were analyzed using a non-compartmental model in the WinNonlin 7.0 software.

incision pain model rats = assay: Incision pain model in rats (Von-Frey mechanical pain threshold); type: in vivo, male SD rat; conditions: for Mechanical pain threshold (Mean ± SD), base value before modeling: baseline before modeling
Method: A male SD rat weighing 200-250 g was fixed in a prone position after anesthesia. The lateral hind limb sole of the rat was flattened upwards, and the toes were fixed using an operation adhesive tape. Sterilization was performed. A 0.5 cm position of the plantar heel of the animal was incised with a scalpel towards the toe end to incise the fascia and the skin to make a longitudinal incision of about 1 cm. After the flexor digitorum brevis was lifted by the surgical forceps, the abdomen of the muscle was longitudinally incised with a scalpel without completely cutting off the muscle. The skin was sutured and disinfected. On the second day of modeling, the animals were divided into different groups, 8 animals each group. Different compounds were separately orally administered intragastrically. Mechanical pain thresholds of the animals were detected with Von-Frey fiber filaments at different time points after administration. The specific grouping administration dose and detection time are detailed in Table 4 below.
as §1

SMILES | Mechanical pain threshold (Mean ± SD), base value before modeling ([1]; 100 mpk group) [g] | Mechanical pain threshold (Mean ± SD), 1 h after administration ([1]; 100 mpk oral intragastric) [g] | Mechanical pain threshold (Mean ± SD), 3 h after administration ([1]; 100 mpk oral intragastric) [g] | IC50 (Nav1.8 ion channel) [nM] | AUC(0-t) [2] [ng·h/mL] | Cmax [2] [ng/mL] | Tmax [2] [h] | half-life [2] [h] | Mechanical pain threshold (Mean ± SD), base value before modeling (incision pain model rats; 100 mpk group) [g] | Mechanical pain threshold (Mean ± SD), 1 h after administration (incision pain model rats; 100 mpk oral intragastric) [g] | Mechanical pain threshold (Mean ± SD), 3 h after administration (incision pain model rats; 100 mpk oral intragastric) [g] | Mechanical pain threshold (Mean ± SD), 6 h after administration (incision pain model rats; 100 mpk oral intragastric) [g] | Mechanical pain threshold (Mean ± SD), base value before modeling ([1]; 30 mpk group) [g] | Mechanical pain threshold (Mean ± SD), 1 h after administration ([1]; 30 mpk oral intragastric) [g] | Mechanical pain threshold (Mean ± SD), 3 h after administration ([1]; 30 mpk oral intragastric) [g] | Mechanical pain threshold (Mean ± SD), 6 h after administration ([1]; 30 mpk oral intragastric, 6 h) [g] | Mechanical pain threshold (Mean ± SD), base value before modeling (incision pain model rats; 30 mpk group) [g] | Mechanical pain threshold (Mean ± SD), 1 h after administration (incision pain model rats; 30 mpk oral intragastric) [g] | Mechanical pain threshold (Mean ± SD), 3 h after administration (incision pain model rats; 30 mpk oral intragastric) [g] | Mechanical pain threshold (Mean ± SD), 6 h after administration (incision pain model rats; 30 mpk oral intragastric) [g]
O=C(Nc1cnc[n+]([O-])c1)c1cc(Cl)c(Cl)cc1Oc1ccc(OC(F)(F)F)cc1 [Compound I-1, 5-(4,5-Dichloro-2-(4-(trifluoromethoxy)phenoxy)benzamido)pyrimidine 1-oxide] | 13.6 ± 1.7 | 11.0 ± 4.0 | 11.1 ± 3.7 | 14 | 17300 | 7370 | 0.25 | 2.74 | 12.6 ± 1.7 | 12.5 ± 1.9 | 11.4 ± 2.0 | 8.4 ± 1.2 | – | – | – | – | – | – | – | –
CC(C)C[C@H](CN)CC(=O)O [Pregabalin, reference compound] | – | – | – | – | – | – | – | – | – | – | – | – | 13.6 ± 2.7 | 13.8 ± 2.3 | 12.3 ± 2.9 | 12.1 ± 2.3 | 12.7 ± 1.7 | 12.4 ± 1.9 | 11.6 ± 1.1 | 11.3 ± 1.4
